Results as given in patent publication US20110306621A1, “ACYLGUANIDINE DERIVATIVES” (priority 2009, published 2011).

Target: T1, human 5-HT5A receptor (Homo sapiens, UniProt P47898)
T1 construct: expressed in transfected cells; membranes used
Assay: Test on a human 5-HT5A receptor binding inhibition ([3H]5-CT)
Settings: membrane from HEK293 cells for forced expression of human 5-HT5A receptor; Ki calculated from IC50 and Kd of [3H]5-CT (4.95 nM)
Experimental: The ORF (open reading frame; protein coding region) of a human 5-HT5A receptor (Genbank AF498985) was cloned from a human hippocampus cDNA library, and then inserted into a pCR2.1 vector (Invitrogen), and Escherichia coli containing the plasmid was cultured in a large amount. Next, the full-length cDNA sequence of the human 5-HT5A receptor was analyzed, and recombined into a pcDNA3.1 vector (Invitrogen) as an expression vector and cultured in a large amount. HEK293 established cells (ATCC) derived from the human fetal kidney were seeded, the expression plasmid (1 μg) obtained above were added thereto with LIPOFECTAMINE 2000 (Invitrogen; 2 μl), the gene was transfected into HEK293 cells, and the expression cells were screened with a drug-resistant marker, Geneticin (G418 sulfate 500 μg/ml; Kanto Chemical Co., Inc.). Thus prepared recombinant cells which expressed the gene were cultured in a medium containing D-MEM (Dulbecco's modified eagle medium, Sigma), 10% FCS (Fetal calf serum: fetal bovine serum), 1% Pc./Sm (Penicillin/Streptomycin, Invitrogen), and 500 μg/ml G418 for 3 days. These experimental operations followed a manual for gene operation experiment and an instruction appended in a reagent, and the like, such as a known method (Sambrook, J. et al, Molecular Cloning-A Laboratory Manual”, Cold Spring Harabor laboratory, NY, 1989).
HEK293 cells for forced expressions of a human 5-HT5A receptor were cultured in a F500 plate, and scraped with a scraper. After centrifugation, the precipitate was collected, and an incubation buffer (50 mM Tris (HCl) (pH 7.4), 10 mM MgSO4, and 0.5 mM EDTA (ethylenediamine tetraacetic acid)) was added thereto. After homogenization, it was further centrifuged, and the incubation buffer was added to the precipitate, followed by thoroughly suspending. The operation was repeated, and protein concentration was measured, thereby completing preparation of the membrane.
A solution of the compound to be tested and 100 μM 5-CT (5-carboxamidetriptamine) in DMSO was added to a 96-well plate at 2 μl/well, suspended in an incubation buffer, and a membrane from HEK293 cells for forced expressions of a human 5-HT5A receptor prepared at 200 μg/ml was added at 100 μl/well. After incubation at room temperature for 15 minutes, a [^3H]5-CT solution (2 nM [^3H]5-CT, incubation buffer) was added thereto at 100 μl/well.
Separately, 100 μl of the solution was distributed into a liquid scintillation vial, and 2 ml of Aquasol II (registered trademark) was added thereto, followed by stirring. Then, radioactivity was measured by a liquid scintillation counter. It was incubated at 37° C. for 60 minutes. The reaction mixture was sucked into 96-well GF/C filter plate that had been pre-treated with 0.2% polyethyleneimine, and washed six times with an ice-cooled, 50 mM Tris (pH 7.5) buffer. The GF/C filter plate was dried.
Microscint TMPS (registered trademark) was added thereto at 40 μl/well. Radioactivity remaining on the GF/C filter plate was measured by a top counter.
The [^3H]5-CT binding inhibiting activity by the compound to be tested in each experiment was determined as an IC50 value with a radioactivity upon addition of DMSO alone being 0% inhibition, and a radioactivity upon addition of 1 μM 5-CT being 100% inhibition. Separately, Ki values were calculated from the Kd value of the [^3H]5-CT determined from Scatchard analysis, by the following equation.
Ki=IC50 (1+Concentraion of ligand added/Kd (4.95 nM))

T1 sequence (P47898 whole entry): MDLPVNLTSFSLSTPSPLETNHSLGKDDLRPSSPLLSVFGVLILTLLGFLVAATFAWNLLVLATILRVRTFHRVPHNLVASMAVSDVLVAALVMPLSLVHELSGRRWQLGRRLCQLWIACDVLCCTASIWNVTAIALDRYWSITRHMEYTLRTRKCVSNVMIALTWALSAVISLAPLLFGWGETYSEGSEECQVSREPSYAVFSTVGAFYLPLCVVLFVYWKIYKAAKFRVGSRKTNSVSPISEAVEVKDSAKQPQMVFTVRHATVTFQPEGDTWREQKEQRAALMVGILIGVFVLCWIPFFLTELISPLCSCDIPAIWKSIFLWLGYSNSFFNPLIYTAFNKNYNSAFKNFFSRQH

Row | Ki [nM] | SMILES
1 | 3 to 30 | Cc1nc2cccc(-c3cccc4ccc(C(=O)N=C(N)N)cc34)c2o1 [Example 144]
2 | 0.3 to 3 | COc1cc(C#N)ccc1-c1c(Cl)ccc2ccc(C(=O)N=C(N)N)cc12 [Example 145]
3 | 0.3 to 3 | COc1ncccc1-c1c(Cl)ccc2ccc(C(=O)N=C(N)N)cc12 [Example 146]
4 | 0.3 to 3 | NC(N)=NC(=O)c1ccc2ccc(Cl)c(-c3ccncc3)c2c1 [Example 147]
5 | 0.3 to 3 | NC(N)=NC(=O)c1ccc2cccc(-c3c(F)cncc3Cl)c2c1 [Example 148]
6 | 0.3 to 3 | N#Cc1cc(F)cc(F)c1-c1cccc2ccc(C(=O)N=C(N)N)cc12 [Example 149]
7 | 0.3 to 3 | NC(N)=NC(=O)c1ccc2cccc(-c3ccc(Cl)cc3O)c2c1 [Example 150]
8 | 0.3 to 3 | NC(N)=NC(=O)c1ccc2cccc(-c3ncc(Cl)cc3Cl)c2c1 [Example 151]
9 | 3 to 30 | Cc1cc(Cl)cnc1-c1cccc2ccc(C(=O)N=C(N)N)cc12 [Example 152]
10 | 3 to 30 | NC(N)=NC(=O)c1ccc2cccc(-c3ccc(Cl)cn3)c2c1 [Example 153]
11 | 3 to 30 | NC(N)=NC(=O)c1ccc2cccc(-c3cccc(C(F)(F)F)n3)c2c1 [Example 154]
12 | 0.3 to 3 | N#Cc1cc(F)c(-c2cccc3ccc(C(=O)N=C(N)N)cc23)c(F)c1 [Example 155]
13 | 0.3 to 3 | NC(N)=NC(=O)c1ccc2ccc(Cl)c(-c3ccncc3F)c2c1 [Example 156]
14 | 0.3 to 3 | NC(N)=NC(=O)c1ccc2ccc(Cl)c(-c3ccncc3Cl)c2c1 [Example 157]
15 | 30 to 300 | Cc1nc(-c2cccc3ccc(C(=O)N=C(N)N)cc23)ccc1F [Example 158]
16 | 3 to 30 | COc1cccc(-c2cccc3ccc(C(=O)N=C(N)N)cc23)n1 [Example 159]
17 | 0.3 to 3 | NC(N)=NC(=O)c1ccc2ccc(F)c(-c3ccncc3Cl)c2c1 [Example 160]
18 | 0.3 to 3 | NC(N)=NC(=O)c1ccc2ccc(F)c(-c3ccccc3O)c2c1 [Example 161]
19 | 3 to 30 | Cc1ccc2ccc(C(=O)N=C(N)N)cc2c1-c1ccccc1O [Example 162]
20 | 3 to 30 | Cc1nc(C2CC2)sc1-c1cccc2ccc(C(=O)N=C(N)N)cc12 [Example 163]

Row | Ki [nM] | SMILES
21 | 3 to 30 | N#Cc1cccc(Cl)c1-c1cccc2ccc(C(=O)N=C(N)N)cc12 [Example 164]
22 | 3 to 30 | NC(N)=NC(=O)c1ccc2cccc(-c3nccc4ccccc34)c2c1 [Example 165]
23 | 3 to 30 | Cc1cc(-c2cccc3ccc(C(=O)N=C(N)N)cc23)cc(C)n1 [Example 166]
24 | 0.3 to 3 | NC(N)=NC(=O)c1ccc2cccc(-c3cccc4ccncc34)c2c1 [Example 167]
25 | 30 to 300 | NC(N)=NC(=O)c1ccc2cccc(-c3ncccc3C(F)(F)F)c2c1 [Example 168]
26 | 0.3 to 3 | NC(N)=NC(=O)c1ccc2cccc(-c3ncc(F)cc3Cl)c2c1 [Example 169]
27 | 3 to 30 | N#Cc1cc(-c2cccc3ccc(C(=O)N=C(N)N)cc23)ccn1 [Example 170]
28 | 30 to 300 | NC(=O)c1cc(-c2cccc3ccc(C(=O)N=C(N)N)cc23)ccn1 [Example 171]
29 | 3 to 30 | NC(N)=NC(=O)c1ccc2cccc(-c3ccnc(Cl)c3F)c2c1 [Example 172]
30 | 3 to 30 | NC(N)=NC(=O)c1ccc2cccc(-c3c[nH]c4ccccc34)c2c1 [Example 173]
31 | 0.3 to 3 | COc1nc(C)ccc1-c1c(Cl)ccc2ccc(C(=O)N=C(N)N)cc12 [Example 174]
32 | 0.3 to 3 | NC(N)=NC(=O)c1ccc2c(F)ccc(-c3c(F)cccc3F)c2c1 [Example 175]
33 | 30 to 300 | NC(N)=NC(=O)c1ccc2cccc(-c3cc(C(F)(F)F)ccn3)c2c1 [Example 176]
34 | 0.3 to 3 | NC(N)=NC(=O)c1ccc2cccc(-c3c(F)ccc(F)c3O)c2c1 [Example 177]
35 | 0.3 to 3 | NC(N)=NC(=O)c1ccc2cccc(-c3cccc(Cl)c3O)c2c1 [Example 178]
36 | 3 to 30 | NC(N)=NC(=O)c1ccc2cccc(-c3cccc4nonc34)c2c1 [Example 179]
37 | 3 to 30 | NC(N)=NC(=O)c1ccc2cccc(-c3ncc(Cl)cc3F)c2c1 [Example 180]
38 | 30 to 300 | N#Cc1cccnc1-c1cccc2ccc(C(=O)N=C(N)N)cc12 [Example 181]
39 | 3 to 30 | NC(N)=NC(=O)c1ccc2cccc(-c3cncs3)c2c1 [Example 182]
40 | 3 to 30 | NC(N)=NC(=O)c1ccc2cccc(-c3cc(C(F)(F)F)ncn3)c2c1 [Example 183]

Row | Ki [nM] | SMILES
41 | 3 to 30 | N#Cc1ccc(-c2cccc3ccc(C(=O)N=C(N)N)cc23)nc1 [Example 184]
42 | 0.3 to 3 | NC(N)=NC(=O)c1ccc2cccc(-c3cc(C4CC4)ncc3Cl)c2c1 [Example 185]
43 | 0.3 to 3 | Cc1nc(C)c(-c2c(F)ccc3ccc(C(=O)N=C(N)N)cc23)s1 [Example 186]
44 | 3 to 30 | NC(N)=NC(=O)c1ccc2cccc(-c3ccnc(C(F)(F)F)n3)c2c1 [Example 187]
45 | 0.3 to 3 | COc1cc(C#N)ccc1-c1ccc(F)c2ccc(C(=O)N=C(N)N)cc12 [Example 188]
46 | 3 to 30 | NC(N)=NC(=O)c1ccc2cccc(-c3ccc(C(F)(F)F)cn3)c2c1 [Example 189]
47 | 0.3 to 3 | NC(N)=NC(=O)c1ccc2cccc(-c3ncc(F)cc3F)c2c1 [Example 190]
48 | 0.3 to 3 | NC(N)=NC(=O)c1ccc2cccc(-c3c(F)cccc3C3CC3)c2c1 [Example 191]
49 | 3 to 30 | NC(N)=NC(=O)c1ccc2cccc(-c3ncc(C4CC4)cc3Cl)c2c1 [Example 192]
50 | 30 to 300 | Cc1c(-c2cccc3ccc(C(=O)N=C(N)N)cc23)ncnc1C1CC1 [Example 193]
51 | 3 to 30 | NC(N)=NC(=O)c1ccc2cccc(-c3ncc(C(F)(F)F)cc3Cl)c2c1 [Example 194]
52 | 30 to 300 | COc1cccnc1-c1cccc2ccc(C(=O)N=C(N)N)cc12 [Example 195]
53 | 3 to 30 | N#Cc1cnc(-c2cccc3ccc(C(=O)N=C(N)N)cc23)c(Cl)c1 [Example 196]
54 | 0.3 to 3 | NC(N)=NC(=O)c1ccc2cccc(-c3cc(Cl)ncc3F)c2c1 [Example 197]
55 | 0.3 to 3 | NC(N)=NC(=O)c1ccc2cccc(-c3ccnc(C4CC4)c3F)c2c1 [Example 198]
56 | 3 to 30 | NC(N)=NC(=O)c1ccc2cccc(-c3cc(C4CC4)ncc3F)c2c1 [Example 199]
57 | 3 to 30 | Cc1cnc(-c2cccc3ccc(C(=O)N=C(N)N)cc23)c(Cl)c1 [Example 200]
58 | 3 to 30 | NC(N)=NC(=O)c1ccc2cccc(-c3ccccn3)c2c1 [Example 201]
59 | 3 to 30 | NC(N)=NC(=O)c1ccc2cccc(-c3ccnc(C4CC4)c3C3CC3)c2c1 [Example 202]
